Assay results: PubChem BioAssay (NCI)
Several values for one entry are separate records, joined by “and”; a condition that tells them apart may be missing. Equal values may be shown once.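 Cultured in 96-well plates, cells were exposed to test compound for 48 hours across five concentrations. GI50 marks 50% less growth. TGI is the concentration that stops growth completely.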

Assays:
Experiment in all cases: growth of human tumour cells (NCI), 48 h
SF-539 CNS = test system: SF-539 CNS
ACHN renal = test system: ACHN renal
LOX IMVI melanoma = test system: LOX IMVI melanoma
UACC-257 melanoma = test system: UACC-257 melanoma
HCT-116 colon = test system: HCT-116 colon
NCI-H226 lung = test system: NCI-H226 lung
UACC-62 melanoma = test system: UACC-62 melanoma
UO-31 renal = test system: UO-31 renal
DU-145 prostate = test system: DU-145 prostate
NCI/ADR-RES ovarian = test system: NCI/ADR-RES ovarian

COC(=O)C1=C(C)N(NC(N)=O)C2(N)N(NC(N)=O)C(C)=C(C(=O)OC)C12C(=O)OC (stereo not given)
TGI (SF-539 CNS): > 100 µM | TGI (ACHN renal): > 100 µM | TGI (LOX IMVI melanoma): > 100 µM | TGI (UACC-257 melanoma): > 100 µM | TGI (HCT-116 colon): > 100 µM | TGI (NCI-H226 lung): > 100 µM | TGI (UACC-62 melanoma): > 100 µM | TGI (UO-31 renal): > 100 µM

CCCN(CCCCC(NC(C)=O)C(=O)NCc1ccccc1)C(=O)NCCCl (stereo not given)
TGI (SF-539 CNS): > 100 µM | TGI (ACHN renal): > 100 µM | TGI (UACC-257 melanoma): > 100 µM | TGI (HCT-116 colon): > 100 µM | TGI (NCI-H226 lung): > 100 µM | TGI (UACC-62 melanoma): > 100 µM | TGI (UO-31 renal): > 100 µM

CC(C)C(=O)/C=C/c1ccccc1
TGI (SF-539 CNS): > 100 µM | TGI (ACHN renal): > 100 µM | TGI (LOX IMVI melanoma): > 100 µM | TGI (UACC-257 melanoma): > 100 µM | TGI (HCT-116 colon): > 100 µM | TGI (UACC-62 melanoma): > 100 µM | TGI (UO-31 renal): > 100 µM

COc1c(O)c2c(c3cc(C(=O)N4CCc5c4c(O)c(OC)c4[nH]c(C(=O)N6CC7CC78C6=CC(=O)c6[nH]cc(C)c68)cc54)[nH]c13)CCN2C(N)=O (stereo not given)
TGI (SF-539 CNS): 12.1 nM and 897 nM and 0.007 µg/mL | TGI (ACHN renal): 0.0142 µM | TGI (LOX IMVI melanoma): 2.61 nM and 287 nM and 0.00412 µg/mL | GI50 (UACC-257 melanoma): 1.34 µM | TGI (DU-145 prostate): > 100 µM | TGI (NCI-H226 lung): 1.47 nM and 276 nM and 0.0163 µg/mL | TGI (UACC-62 melanoma): 5.3 nM and 688 nM and 0.00323 µg/mL | GI50 (UO-31 renal): 0.223 µM

O=C1NC(=S)NC(=O)C1=Cc1cc2c(cc1[N+](=O)[O-])OCO2
TGI (SF-539 CNS): > 100 µM | TGI (ACHN renal): > 100 µM | TGI (UACC-257 melanoma): > 100 µM | TGI (HCT-116 colon): > 100 µM | TGI (NCI-H226 lung): > 100 µM | TGI (UACC-62 melanoma): > 100 µM | TGI (UO-31 renal): > 100 µM

Cc1ccccc1-c1c(N)nc(NC#N)nc1C(=O)Nc1ccccc1
TGI (SF-539 CNS): > 100 µM | TGI (ACHN renal): > 100 µM | TGI (LOX IMVI melanoma): > 100 µM | TGI (UACC-257 melanoma): > 100 µM | TGI (HCT-116 colon): > 100 µM | TGI (NCI-H226 lung): > 100 µM | TGI (UACC-62 melanoma): > 100 µM | TGI (UO-31 renal): > 100 µM

C[C@@H]1C=C(CCCCCCCCCCC[C@H](O)[C@@H]2CCC(=O)O2)C(=O)O1
GI50 (SF-539 CNS): 38.8 µM | TGI (SF-539 CNS): > 100 µM | GI50 (ACHN renal): 17.9 µM | TGI (ACHN renal): 49.3 µM | GI50 (UACC-257 melanoma): 43.2 µM | TGI (UACC-257 melanoma): > 100 µM | GI50 (DU-145 prostate): 24.1 µM | TGI (DU-145 prostate): > 100 µM | GI50 (HCT-116 colon): 28 µM | TGI (HCT-116 colon): > 100 µM | GI50 (NCI-H226 lung): 15.9 µM | TGI (NCI-H226 lung): 68.5 µM | GI50 (UACC-62 melanoma): 21.2 µM | TGI (UACC-62 melanoma): 85.7 µM | GI50 (UO-31 renal): 20.1 µM | TGI (UO-31 renal): 55.6 µM | GI50 (NCI/ADR-RES ovarian): 12.1 µM | TGI (NCI/ADR-RES ovarian): 34 µM

Cc1cn(C2CC(F)C(CO)O2)c(=O)[nH]c1=O (stereo not given)
GI50 (ACHN renal): > 100 µM | TGI (ACHN renal): > 100 µM | GI50 (LOX IMVI melanoma): > 100 µM | TGI (LOX IMVI melanoma): > 100 µM | GI50 (UACC-257 melanoma): > 100 µM | TGI (UACC-257 melanoma): > 100 µM | GI50 (DU-145 prostate): > 100 µM | TGI (DU-145 prostate): > 100 µM | GI50 (HCT-116 colon): > 100 µM | TGI (HCT-116 colon): > 100 µM | GI50 (NCI-H226 lung): > 100 µM | TGI (NCI-H226 lung): > 100 µM | GI50 (UACC-62 melanoma): > 100 µM | TGI (UACC-62 melanoma): > 100 µM | GI50 (UO-31 renal): > 100 µM | TGI (UO-31 renal): > 100 µM | GI50 (NCI/ADR-RES ovarian): > 100 µM | TGI (NCI/ADR-RES ovarian): > 100 µM

CC(C)N(C(=O)C12C3C4C5(C#N)C3C1(I)C5C42I)C(C)C (stereo not given)
TGI (SF-539 CNS): > 100 µM | TGI (ACHN renal): > 100 µM | TGI (LOX IMVI melanoma): > 66.1 µM | TGI (UACC-257 melanoma): > 100 µM | TGI (HCT-116 colon): 34.3 µM | TGI (NCI-H226 lung): > 100 µM | TGI (UACC-62 melanoma): > 100 µM | TGI (UO-31 renal): > 100 µM

COC(=O)C1CC(C(=O)OC)c2nc3cc(C)ccc3nc21 (stereo not given)
TGI (SF-539 CNS): > 100 µM | TGI (ACHN renal): > 100 µM | TGI (LOX IMVI melanoma): > 100 µM | TGI (UACC-257 melanoma): > 100 µM | TGI (NCI-H226 lung): > 100 µM | TGI (UACC-62 melanoma): > 100 µM | TGI (UO-31 renal): > 100 µM

CCOc1ccc(N=Cc2cccc3cccnc23)cc1
TGI (SF-539 CNS): > 100 µM | TGI (ACHN renal): > 100 µM | TGI (UACC-257 melanoma): > 100 µM | TGI (HCT-116 colon): > 100 µM | TGI (NCI-H226 lung): > 100 µM | TGI (UACC-62 melanoma): > 100 µM

COC(=O)C(CCS(=O)(=O)CC(=O)C(=O)Nc1cccc(C(C)=O)c1)C(=O)OC
TGI (SF-539 CNS): > 100 µM | TGI (ACHN renal): > 100 µM | TGI (LOX IMVI melanoma): > 100 µM | TGI (UACC-257 melanoma): > 100 µM | TGI (HCT-116 colon): > 100 µM | TGI (NCI-H226 lung): > 100 µM | TGI (UACC-62 melanoma): > 100 µM | TGI (UO-31 renal): > 100 µM

CC(=O)Nc1ccc(C(=O)N2N=C(C)/C(=C/c3ccccc3O)C2=O)cc1
TGI (SF-539 CNS): > 100 µM | TGI (ACHN renal): > 100 µM | TGI (LOX IMVI melanoma): > 100 µM | TGI (UACC-257 melanoma): > 100 µM | TGI (HCT-116 colon): > 100 µM | TGI (NCI-H226 lung): > 100 µM | TGI (UO-31 renal): > 100 µM

O=C(O)CNc1c2ccccc2nc2ccccc12
TGI (SF-539 CNS): > 100 µM | TGI (ACHN renal): > 100 µM | TGI (LOX IMVI melanoma): > 100 µM | TGI (UACC-257 melanoma): > 100 µM | TGI (HCT-116 colon): > 100 µM | TGI (NCI-H226 lung): > 100 µM | TGI (UACC-62 melanoma): > 100 µM | TGI (UO-31 renal): > 100 µM

N#CC(NNC(=O)c1ccccc1O)c1ccc(O)cc1 (stereo not given)
TGI (SF-539 CNS): > 100 µM | TGI (ACHN renal): > 100 µM | TGI (LOX IMVI melanoma): > 100 µM | TGI (UACC-257 melanoma): > 100 µM | TGI (HCT-116 colon): > 100 µM | TGI (NCI-H226 lung): 55.1 µM | TGI (UACC-62 melanoma): 5.97 µM | TGI (UO-31 renal): 11.9 µM

COc1ccc2[nH]c(-c3ccccn3)cc(=O)c2c1
TGI (SF-539 CNS): 91.9 µM | TGI (ACHN renal): > 100 µM | TGI (LOX IMVI melanoma): > 100 µM | TGI (UACC-257 melanoma): > 100 µM | GI50 (HCT-116 colon): 33.6 µM | TGI (HCT-116 colon): > 100 µM | GI50 (NCI-H226 lung): 36.6 µM | TGI (NCI-H226 lung): > 100 µM | TGI (UACC-62 melanoma): > 100 µM | TGI (UO-31 renal): > 100 µM

O=C1c2cccc3cc([N+](=O)[O-])cc(c23)C(=O)N1CCNCCNCCNCCN1C(=O)c2cccc3cc([N+](=O)[O-])cc(c23)C1=O
TGI (SF-539 CNS): 0.304 µM and 0.357 µM | GI50 (UACC-257 melanoma): 0.0979 µM | TGI (UACC-257 melanoma): 0.184 µM and 0.334 µM | TGI (HCT-116 colon): 1.08 µM | TGI (NCI-H226 lung): 0.309 µM and 0.315 µM | TGI (UACC-62 melanoma): 0.106 µM | TGI (UO-31 renal): 2.16 µM

CCN1C2=NC(=O)N(C)C(=O)C2(Cl)C(C(SC)S(=O)(=O)c2ccc(C)cc2)c2ccccc21 (stereo not given)
TGI (SF-539 CNS): > 100 µM | TGI (LOX IMVI melanoma): > 100 µM | TGI (UACC-257 melanoma): > 100 µM | TGI (HCT-116 colon): 53.6 µM | TGI (NCI-H226 lung): > 100 µM | TGI (UACC-62 melanoma): > 100 µM | TGI (UO-31 renal): 76.1 µM

O=S(=O)([O-])c1cccc2cccc(N=Cc3ccccc3[O-])c12.O=S(=O)([O-])c1cccc2cccc(N=Cc3ccccc3[O-])c12.[O]=[U]=[O]
GI50 (SF-539 CNS): 36.3 µM | TGI (SF-539 CNS): > 100 µM | GI50 (ACHN renal): 38.5 µM | TGI (ACHN renal): > 100 µM | GI50 (LOX IMVI melanoma): 55.9 µM | TGI (LOX IMVI melanoma): > 100 µM | GI50 (UACC-257 melanoma): > 100 µM | TGI (UACC-257 melanoma): > 100 µM | GI50 (HCT-116 colon): 22.3 µM | TGI (HCT-116 colon): > 100 µM | GI50 (NCI-H226 lung): 84.9 µM | TGI (NCI-H226 lung): > 100 µM | GI50 (UACC-62 melanoma): > 100 µM | TGI (UACC-62 melanoma): > 100 µM | GI50 (UO-31 renal): 50.7 µM | TGI (UO-31 renal): > 100 µM

[N-]=[N+]=NC(c1cn(C2CC(O)C(CO)O2)c(=O)[nH]c1=O)C(Br)I (stereo not given)
TGI (SF-539 CNS): > 100 µM | TGI (ACHN renal): > 100 µM | TGI (LOX IMVI melanoma): > 100 µM | TGI (HCT-116 colon): > 100 µM | TGI (NCI-H226 lung): > 100 µM | TGI (UACC-62 melanoma): > 100 µM | TGI (UO-31 renal): > 100 µM

Cc1cccc(-c2nc3c(C(=O)NCCN(C)C)cccc3[nH]2)c1
TGI (SF-539 CNS): 2.04 µM | TGI (ACHN renal): 8.46 µM | TGI (LOX IMVI melanoma): 2 µM | TGI (UACC-257 melanoma): 3.08 µM | TGI (HCT-116 colon): 1.55 µM | TGI (NCI-H226 lung): 3.89 µM | TGI (UACC-62 melanoma): 3.2 µM | TGI (UO-31 renal): 5.05 µM

CC(=O)CCCCCCCCCCCC[C@@H]1CC[C@H](C)[C@H](O)N1
TGI (ACHN renal): > 100 µM | TGI (LOX IMVI melanoma): > 100 µM | TGI (UACC-257 melanoma): > 100 µM | TGI (HCT-116 colon): > 100 µM | TGI (NCI-H226 lung): > 100 µM | TGI (UACC-62 melanoma): > 100 µM | TGI (UO-31 renal): > 100 µM
